Source: EP0628551A1, “Semicyclic urea derivatives as antihistaminic agents” (SHIONOGI & CO., LTD., priority 1993, dated 1994)
Values after ≈ are worked out from the molar mass of the structure shown.

Assays:
ileum of a guinea pig = assay: Evaluation of antihistaminic effects in vitro (inhibition of histamine-induced contraction of isolated ileum, Magnus method); format: cell-based; settings: Cavia porcellus; guinea pig ileum in saline solution at 37°C; histamine diphosphate 0.5 µg/ml; subject compound 0.03 to 10 µg/ml; 50% inhibition of submaximal contraction; read-out: Antihistaminic effect IC50
Method: The effects of Compound I of the present invention and salts thereof as an antiallergic agents can be evaluated by various methods for measuring antiallergic activity, for example by conducting the following tests (1) and (2). • (1) Antihistaminic effect evaluation test in vitro Histamine diphosphate and Compound I of the present invention or salts thereof are added to an ileum of a guinea pig in a saline solution. The concentration (at which the contraction of the ileum by histamine is inhibited by 50%) of Compound I of the present invention is measured. • (2) Histamine₁ receptor (H₁ receptor) in vitro binding inhibition test As a standard material which binds to a H₁ receptor, pyrilamine is used. Compound I of the present invention is added with varying concentrations to a mixture containing a receptor sample prepared by homogenizing a cerebral cortex of a rat and [³H]-pyrilamine, and incubated. From radioactivity of [³H]-pyrilamine which is bound to the receptor sample, the concentration (IC₅₀) of Compound I inhibiting the specific binding of [³H]-pyrilamine to the receptor sample is measured to obtain an inhibition constant (Ki). Compound I of the present invention has a lower degree of migration to brain. Thus, Compound I has less side effects on the central nervous system such as sleepiness, because of its less frequent binding to the H₁ recepter in brain. The extent of migration of Compound I or salts thereof to the brain can be obtained by the following test method 3. • (3) H₁ receptor binding inhibition test ex vivo A cerebral cortex of a mouse orally administered with Compound I of the present invention is homogenized to prepare a receptor sample. The receptor sample is incubated with [³H]-pyrilamine. From the radioactivity of [³H]-pyrilamine bound to the receptor sample, the inhibition of Compound I with respect to the specific biding of pyrilamine to the receptor sample is obtained.
The following experiments were conducted in accordance with the method of R. Magnus (Arch. F.D. Ges. Physiol., 102: 123-151, 1904). Ileums derived from guinea pigs were respectively soaked in a saline solution at 37°C. Then, histamine diphosphate and a subject compound which had been obtained in the Examples shown in Table 1 were added to each saline solution so that the concentrations of histamine diphosphate and the subject compound are 0.5 µg/ml and 0.03 to 10 µg/ml, respectively. The ileum generally contracts by histamine; however, in the case where the subject compound is present, the antagonistic effect of the subject compound on histamine inhibits the contraction of the ileum. The contraction degree of the ileum was measured at each concentration of the added subject compound, and the concentration IC₅₀ of the subject compound which inhibited 50% submaximal contraction of the ileum by histamine was obtained. The submaximal contraction was obtained in the case where the subject compound was not added. […] When the value of IC₅₀ is lower, the subject cmpound has stronger antihistaminic effects.

H₁ receptor = target: T1, H₁ receptor (Mus musculus, UniProt P70174); assay: H1 receptor binding inhibition test ex vivo (migration to the brain, [3H]-pyrilamine binding to cerebral cortex after oral dosing); format: in vivo; settings: Slc-ddY male mice, 10 mg/kg orally, cerebral cortex removed 60 minutes after administration, [³H]-pyrilamine 4 nM, lower inhibition = lower migration to brain, read-out: [³H]-labeled pyrilamine binding inhibition ex vivo
T1 construct: A cerebral cortex of a mouse orally administered with Compound I of the present invention is homogenized to prepare a receptor sample; from tissue; host or cells: mouse (Slc-ddY, male) cerebral cortex homogenate after oral dosing
T1 sequence (P70174 whole entry): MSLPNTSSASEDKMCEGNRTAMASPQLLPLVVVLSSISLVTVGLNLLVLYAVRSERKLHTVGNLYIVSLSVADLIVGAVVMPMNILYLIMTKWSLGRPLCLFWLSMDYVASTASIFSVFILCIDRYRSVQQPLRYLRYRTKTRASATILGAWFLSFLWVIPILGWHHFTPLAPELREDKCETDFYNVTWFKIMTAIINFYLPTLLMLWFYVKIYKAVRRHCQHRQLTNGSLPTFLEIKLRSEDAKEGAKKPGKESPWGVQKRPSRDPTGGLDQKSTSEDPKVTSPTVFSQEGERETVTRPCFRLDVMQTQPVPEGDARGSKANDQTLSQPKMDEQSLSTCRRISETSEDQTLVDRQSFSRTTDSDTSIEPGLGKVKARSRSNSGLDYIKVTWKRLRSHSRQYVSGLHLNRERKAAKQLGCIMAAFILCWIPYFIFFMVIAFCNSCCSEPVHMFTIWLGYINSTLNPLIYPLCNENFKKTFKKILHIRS
Method: The receptor sample is incubated with [³H]-pyrilamine.
Five Slc-ddY male mice were used as one group. First, 10 mg/kg of the compound of the present invention was orally administered to each mouse. The mouse were killed by decapitation 60 minutes after the administration and each cerebral cortex was removed. Each cerebral cortex was frozen on dry ice and kept in a refrigerator at -80°C. Before the experiment, each cerebral cortex was homogenized with about 10 times its volume of 50 mM of Na/K phosphate buffer (pH 7.5). A mixture of each cerebral cortex was further diluted 6 times and used as a receptor sample. A mixture of each receptor sample and [³H]-pyrilamine (4 nM) was incubated at 25°C for 30 minutes. The reaction was stopped by dilution and filtration. The radioactivity of [³H]-pyrilamine bound to the receptor sample on the filter paper was measured by a liquid scintillation counter. The specific binding of [³H]-pyrilamine to the receptor sample was obtained by subtracting the non-specific binding from the total bindings. The non-specific binding was obtained under the conditions of containing 10 µM of non-radioactive pyrilamine. The amount of protein was measured by DC protein assay (Biolad), and the inhibition of the compound of the present invention to the specific binding of [³H]-pyrilamine per 1 mg of protein was measured. […]

For `O=C(NCCN1CCC(=C(c2ccccc2)c2ccccc2)CC1)N1CCN(c2ccccn2)CC1` [Example 53], the IC50 (ileum of a guinea pig) was 1.76 µg/mL (≈ 3.66 µM) and the inhibition at 10 mg/kg (H₁ receptor) was 0%.

For `O=C(NCCN1CCN(C(c2ccccc2)c2ccccc2)CC1)N1CCN(c2ccccn2)CC1` [Example 39], the IC50 (ileum of a guinea pig) was 0.119 µg/mL (≈ 0.246 µM) and the inhibition at 10 mg/kg (H₁ receptor) was 4%.

Work on `CC(C)(C)OC(=O)N1CCN(C(=O)NCCCN2CCC(=C(c3ccccc3)c3ccccc3)CC2)CC1` [Example 71] yielded an IC50 (ileum of a guinea pig) of 1.12 µg/mL (≈ 2.16 µM) and an inhibition at 10 mg/kg (H₁ receptor) of 7%.

`O=C(NCCCN1CCC(OC(c2ccccc2)c2ccccc2)CC1)N1CCN(S(=O)(=O)c2cccnc2)CC1` [Example 61] gave an IC50 (ileum of a guinea pig) of 0.196 µg/mL (≈ 0.339 µM) and an inhibition at 10 mg/kg (H₁ receptor) of 6%.

Compound `O=C(NCCCN1CCC(OC(c2ccc(F)cc2)c2ccc(F)cc2)CC1)N1CCN(c2ccccn2)CC1` [Example 50] has an IC50 (ileum of a guinea pig) of 0.0817 µg/mL (≈ 0.149 µM) and an inhibition at 10 mg/kg (H₁ receptor) of 2%.

For `O=C1CCCN1C(=O)NCCCCCN1CCN(C(c2ccccc2)c2ccccc2)CC1` [Example 79], the IC50 (ileum of a guinea pig) was 0.042 µg/mL (≈ 0.0936 µM) and the inhibition at 10 mg/kg (H₁ receptor) was 5%.

`O=c1[nH]c2ccccc2n1CCCN1CCN(C(c2ccccc2)c2ccccc2)CC1` [Oxatoamide, reference compound] showed an IC50 (ileum of a guinea pig) of 1 µg/mL (≈ 2.34 µM) and an inhibition at 10 mg/kg (H₁ receptor) of 17%.

Work on `O=C(NCCCN1CCC(OC(c2ccccc2)c2ccccc2)CC1)N1CCN(c2ncccn2)CC1` [Example 15] yielded an IC50 (ileum of a guinea pig) of 0.0595 µg/mL (≈ 0.116 µM) and an inhibition at 10 mg/kg (H₁ receptor) of 6%.

With `O=C(NCCCN1CCC(=C(c2ccccc2)c2ccccc2)CC1)N1CCN(S(=O)(=O)c2cccc3cccnc23)CC1` [Example 56] the IC50 (ileum of a guinea pig) was 1.38 µg/mL (≈ 2.26 µM) and the inhibition at 10 mg/kg (H₁ receptor) was 0%.

In the case of `O=C(NCCCN1CCC(=C(c2ccccc2)c2ccccc2)CC1)N1CCN(c2ncccn2)CC1` [Example 5], the IC50 (ileum of a guinea pig) is reported as 0.442 µg/mL (≈ 0.89 µM) and the inhibition at 10 mg/kg (H₁ receptor) is reported as 0%.

`CC(C)(C)c1ccc(C(O)CCCN2CCC(C(O)(c3ccccc3)c3ccccc3)CC2)cc1` (stereo not drawn) [Terfenadine, reference compound] showed an IC50 (ileum of a guinea pig) of 22.4 µg/mL (≈ 47.4 µM).

In the case of `O=C(NCCCN1CCC(OC(c2ccccc2)c2ccccc2)CC1)N1CCN(C(c2ccccc2)c2ccccc2)CC1` [Example 45], the IC50 (ileum of a guinea pig) is reported as 0.621 µg/mL (≈ 1.03 µM) and the inhibition at 10 mg/kg (H₁ receptor) is reported as 6%.

`O=C1CSCCN1C(=O)NCCCN1CCC(OC(c2ccc(F)cc2)c2ccc(F)cc2)CC1` [Example 49] showed an IC50 (ileum of a guinea pig) of 0.0244 µg/mL (≈ 0.0484 µM) and an inhibition at 10 mg/kg (H₁ receptor) of 9%.

`O=C(NCCCN1CCC(OC(c2ccccc2)c2ccccc2)CC1)N1CCN(S(=O)(=O)c2cccc3cccnc23)CC1` [Example 55] gave an IC50 (ileum of a guinea pig) of 1.14 µg/mL (≈ 1.82 µM) and an inhibition at 10 mg/kg (H₁ receptor) of 0%.

In the case of `O=C(NCCCN1CCN(C(c2ccc(F)cc2)c2ccc(F)cc2)CC1)N1CCN(c2ccccn2)CC1` [Example 43], the IC50 (ileum of a guinea pig) is reported as 0.216 µg/mL (≈ 0.404 µM) and the inhibition at 10 mg/kg (H₁ receptor) is reported as 14%.

In the case of `CC(C)(C)OC(=O)N1CCN(C(=O)NCCCN2CCC(OC(c3ccccc3)c3ccccc3)CC2)CC1` [Example 70], the IC50 (ileum of a guinea pig) is reported as 0.0889 µg/mL (≈ 0.166 µM) and the inhibition at 10 mg/kg (H₁ receptor) is reported as 2%.

Compound `CCOC(=O)N1CCN(C(=O)NCCCN2CCC(OC(c3ccc(F)cc3)c3ccc(F)cc3)CC2)CC1` [Example 51] has an IC50 (ileum of a guinea pig) of 0.427 µg/mL (≈ 0.784 µM) and an inhibition at 10 mg/kg (H₁ receptor) of 0%.
